In patent US11896579B2, “Combination drug” (Chugai Seiyaku Kabushiki Kaisha, priority 2015, dated 2024):

tested on: human non-small cell lung cancer cell line NCI-H2228 which is positive for the ALK fusion gene; assay: NCI-H2228 xenograft tumor volume in SCID mice; format: in vivo; details: SCID mice with NCI-H2228 transplant; agent alone: bevacizumab 5 mg/kg i.p. once a week; cisplatin 5 mg/kg i.v. once a week; paclitaxel 12.5 mg/kg i.v. once a week; gemcitabine 60 mg/kg i.p. twice a week
Procedure: In the FIGURE, the horizontal axis represents the number of days elapsed after the transplantation of the cells, and the vertical axis represents the tumor volume and the body weight change rate. Control represents control groups to which a solvent is administered and combo represents combined use groups.

Compound | change in tumor volume during administration alone
N.N.[Cl][Pt][Cl] [cisplatin] | No significant change in tumor volume
Nc1ccn([C@@H]2O[C@H](CO)[C@@H](O)C2(F)F)c(=O)n1 [gemcitabine] | No significant change in tumor volume
CC(=O)O[C@H]1C(=O)[C@@]2(C)[C@H]([C@H](OC(=O)c3ccccc3)[C@]3(O)C[C@H](OC(=O)[C@H](O)[C@@H](NC(=O)c4ccccc4)c4ccccc4)C(C)=C1C3(C)C)[C@]1(OC(C)=O)CO[C@@H]1C[C@@H]2O [paclitaxel] | No significant change in tumor volume
bevacizumab: anti-human VEGF antibody | increases in tumor volume were observed
